Source: article PMC11562385 (RSC Chemical Biology, 2024)
Where two headings read alike, the source gives them in different places. Bridge positions count the residues as written; N and C are the ends. Square brackets hold non-standard residues; d marks the D form. Peptide text beside a SMILES is read from it. * marks the point of attachment. Dab = NCC[C@H](N)C(=O)O; X1 = CN(C)C/C=C/C(=O)*

Tests used:
PD1:PDL1 interaction = target: T1, PD1:PDL1 interaction (Homo sapiens, UniProt Q15116); test: PD1/PDL1 immunoblocking ELISA (BPS Bioscience kit cat # 72005); format: binding; details: for LE (ligand efficiency): LE = -RTln(EC50)/HA, HA = non-hydrogen atoms omitting the strap (RWV•••VWE)
T1 construct: purchased BPS Bioscience 72005
T1 sequence (Q15116 25-167 limits assumed): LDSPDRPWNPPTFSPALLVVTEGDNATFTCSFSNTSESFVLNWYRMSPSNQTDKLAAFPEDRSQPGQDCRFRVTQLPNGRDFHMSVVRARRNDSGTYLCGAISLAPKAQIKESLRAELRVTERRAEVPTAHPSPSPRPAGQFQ

[1] = Variable-temperature CD melting curves (CD-melts at 228±2 nm and 202±2 nm), individual and global two-state fits; format: physicochemical; details: for ΔGF0: CD-melt at 228±2 nm, individual two-state Gibbs-Helmholtz fit (Origin 9.0), phosphate buffer 15 mM pH 6.5 ± MeOH; for ΔGF0 / DHm (fitted value, results from OriginPro) / Tm (fitted value, results from OriginPro): 0-95 °C; for Tm / Hairpin %-fold 291K / Hairpin %-fold 310K: Table S5, individual fit; for Tm: 228±2 nm; for -TΔSF0 / ΔCpF0 / ΔHF0 / ΔHm: as E16; for VT-CD %-fold: folded fraction (χF) at 25 °C from CD-melts, (R) regular / (B) bulged fold; for VT-CD %-fold / VT-CD Tm (°C): phosphate buffer 15 mM pH 6.5, up to 20% MeOH; for %fold 291K: fraction folded at 291 K from two-state fit of CD-melt; for VT-CD Tm (°C): melting temperature from CD-melts; for DHm (fitted value, OriginPro two-state fit of CD-melt) / Tm (fitted value, OriginPro two-state fit of CD-melt): variable-temperature CD melt 0-95 °C, θ - θcoil(95) vs T, l = 0.1 cm, individual two-state fit; for DHm (fitted value, results from OriginPro) / Tm (fitted value, results from OriginPro): two-state fit of the CD melt θ - θcoil(95) vs T, peptide c 3.2e-5 to 5e-5 M
How it was run: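 Far-UV CD melts (0 to 95 °C) at 15-120 µM peptide in 15 mM phosphate buffer, concentration set by Trp/Tyr absorbance at 280 nm; CD-exciton intensity taken as %-folding probe. Melting curves fitted individually and globally to a two-state model.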

[2] = ELISA, mean of three independent experiments, read-out: EC50 Value

Row | Compound | LE (ligand efficiency) (PD1:PDL1 interaction) | ΔGF0 [1] [kcal/mol] | Tm [1] [oC] | Hairpin %-fold 291K ([1]; 291 K) [%] | Hairpin %-fold 310K [1] [%] | -TΔSF0 [1] [kcal/mol] | ΔCpF0 [1] [cal.deg-1.mol-1] | ΔHF0 [1] [kcal/mol] | ΔHm [1] [kcal/mol] | VT-CD %-fold [1] | %fold 291K [1] [%] | VT-CD Tm (°C) [1] [°C] | DHm (fitted value, OriginPro two-state fit of CD-melt) [1] [kcal/mol] | Tm (fitted value, OriginPro two-state fit of CD-melt) [1] [K] | EC50 (PD1:PDL1 interaction; [2]) [nM] | DHm (fitted value, results from OriginPro) ([1]; l 0.1 cm) [kcal/mol] | Tm (fitted value, results from OriginPro) ([1]; l 0.1 cm) [K] | also measured
1 | CC(C)[C@H](NC(=O)[C@H](Cc1c[nH]c2ccccc12)NC(=O)[C@@H](N)CCCNC(=N)N)C(=O)N[C@@H](C)C(=O)N[C@@H](CCCNC(=N)N)C(=O)N[C@@H](CCCNC(=N)N)C(=O)N[C@@H](CC(=O)O)C(=O)N[C@@H](Cc1ccc(O)cc1)C(=O)N[C@@H](CCCNC(=N)N)C(=O)N[C@@H](Cc1ccccc1)C(=O)N[C@@H](CC(=O)O)C(=O)N[C@@H](CCNC(=O)/C=C/CN(C)C)C(=O)NCC(=O)N[C@@H](Cc1ccccc1)C(=O)N[C@@H](CC(=O)O)C(=O)N[C@@H](Cc1ccc(O)cc1)C(=O)N[C@@H](Cc1c[nH]c2ccccc12)C(=O)N[C@H](C(=O)N[C@@H](Cc1c[nH]c2ccccc12)C(=O)N[C@@H](CCC(=O)O)C(=O)O)C(C)C [2cc] (H-RWVARRDYRFD[Dab](X1)GFDYWVWE-OH; N-terminus assumed) | 0.13 | -0.93 ± 0.002 | 48.7 | 87 ± 1 | 70 ± 1 | 8.50 ± 0.04 | -268 ± 2 | -9.43 ± 0.04 | -15.8 ± 0.04 | – | – | – | – | – | – | – | – | Tm 228 nm Glob. ([1]; global fit (shared maximum molar ellipticity), 228 nm): 51.7 oC; Tm 202 nm Glob. ([1]; global fit, 202 nm): 9.7 oC; χF (291 K) 202 nm Glob. ([1]; global fit, 202 nm, 291 K): 47%; χF (291 K) 228 nm Glob. ([1]; global fit, 228 nm, 291 K): 95%; χF (291 K) 202 nm Indiv. ([1]; individual fit, 202 nm, 291 K): 83%; χF (291 K) 228 nm Indiv. ([1]; individual fit, 228 nm, 291 K): 88%; Tm 228 nm Indiv. ([1]; individual fit, exciton band 228 nm): 49.8 oC; Tm 202 nm Indiv. ([1]; individual fit, β-bulge band 202 nm): 44.3 oC; DHm (fitted value, OriginPro) ([1]; two-state fit of the CD melt (θ - θcoil(95) vs T, 0-95 °C), l 0.1 cm, enthalpy of folding at Tm): -15.8096 kcal/mol
2 | CSCC[C@H](NC(=O)[C@H](CC(=O)O)NC(=O)CNC(=O)[C@H](CCCNC(=N)N)NC(=O)[C@H](Cc1ccc(O)cc1)NC(=O)[C@H](CC(=O)O)NC(=O)[C@H](CCCNC(=N)N)NC(=O)[C@H](CCCNC(=N)N)NC(=O)[C@H](C)NC(=O)[C@@H](NC(=O)[C@H](Cc1c[nH]c2ccccc12)NC(=O)[C@@H](N)CCCNC(=N)N)C(C)C)C(=O)NCC(=O)N[C@@H](Cc1ccccc1)C(=O)N[C@@H](CC(=O)O)C(=O)N[C@@H](Cc1ccc(O)cc1)C(=O)N[C@@H](Cc1c[nH]c2ccccc12)C(=O)N[C@@H](Cc1c[nH]cn1)C(=O)N[C@@H](Cc1c[nH]c2ccccc12)C(=O)N[C@@H](CCC(=O)O)C(=O)O [2d] (H-RWVARRDYRGDMGFDYWHWE-OH) | 0.06 | -1.59 ± 0.01 | 50.9 | 97 ± 1 | 80 ± 1 | 18.2 ± 0.2 | 0 | -19.8 ± 0.2 | -19.8 ± 0.07 | 97% (B) | 97 | 51 | -19.8087 | 324.048 | – | – | – | –
3 | CSCC[C@H](NC(=O)[C@H](CC(=O)O)NC(=O)[C@H](Cc1ccccc1)NC(=O)[C@H](CCCNC(=N)N)NC(=O)[C@H](Cc1ccc(O)cc1)NC(=O)[C@H](CC(=O)O)NC(=O)[C@H](CCCNC(=N)N)NC(=O)[C@H](CCCNC(=N)N)NC(=O)[C@H](C)NC(=O)[C@@H](NC(=O)[C@H](Cc1c[nH]c2ccccc12)NC(=O)[C@@H](N)CCCNC(=N)N)C(C)C)C(=O)NCC(=O)N[C@@H](Cc1ccccc1)C(=O)N[C@@H](CC(=O)O)C(=O)N[C@@H](Cc1ccc(O)cc1)C(=O)N[C@@H](Cc1c[nH]c2ccccc12)C(=O)N[C@@H](Cc1c[nH]cn1)C(=O)N[C@@H](Cc1c[nH]c2ccccc12)C(=O)N[C@@H](CCC(=O)O)C(=O)O [2e] (H-RWVARRDYRFDMGFDYWHWE-OH) | 0.06 | 0.088 ± 0.02 | 3.96 | 48 ± 1 | 42 ± 1 | 2.40 ± 0.02 | -107±5 | -2.31 ± 0.03 | -0.070 ± 0.6 | 48% (B) | 48 | 4 | -0.0700474 | 277.107 | – | – | – | –
4 | CSCC[C@H](NC(=O)[C@H](CC(=O)O)NC(=O)CNC(=O)[C@H](CCCNC(=N)N)NC(=O)[C@H](Cc1ccc(O)cc1)NC(=O)[C@H](CC(=O)O)NC(=O)[C@H](CCCNC(=N)N)NC(=O)[C@H](CCCNC(=N)N)NC(=O)[C@H](CCCCN)NC(=O)[C@@H](NC(=O)[C@H](Cc1c[nH]c2ccccc12)NC(=O)[C@@H](N)CCCNC(=N)N)C(C)C)C(=O)NCC(=O)N[C@@H](Cc1ccccc1)C(=O)N[C@@H](CC(=O)O)C(=O)N[C@@H](Cc1ccc(O)cc1)C(=O)N[C@@H](Cc1c[nH]c2ccccc12)C(=O)N[C@H](C(=O)N[C@@H](Cc1c[nH]c2ccccc12)C(=O)N[C@@H](CCC(=O)O)C(=O)O)C(C)C [2f] (H-RWVKRRDYRGDMGFDYWVWE-OH) | 0.06 | -1.33 ± 0.01 | 65.4 | 92 ± 1 | 85 ± 1 | 5.76 ± 0.07 | -208 ±2 | -7.09 ± 0.07 | -15.5 ± 0.04 | 92% (B) | 92 | – | -15.5228 | 338.533 | 862 | – | – | –
5 | CSCC[C@H](NC(=O)[C@H](CC(=O)O)NC(=O)CNC(=O)[C@H](CCCNC(=N)N)NC(=O)[C@H](Cc1ccc(O)cc1)NC(=O)[C@H](CC(=O)O)NC(=O)[C@H](CCCNC(=N)N)NC(=O)[C@H](CCCNC(=N)N)NC(=O)[C@H](C)NC(=O)[C@@H](NC(=O)[C@H](Cc1c[nH]c2ccccc12)NC(=O)[C@@H](N)CCCNC(=N)N)C(C)C)C(=O)NCC(=O)N[C@@H](Cc1ccccc1)C(=O)N[C@@H](CC(N)=O)C(=O)N[C@@H](Cc1ccc(O)cc1)C(=O)N[C@@H](Cc1c[nH]c2ccccc12)C(=O)N[C@H](C(=O)N[C@@H](Cc1c[nH]c2ccccc12)C(=O)N[C@@H](CCC(=O)O)C(=O)O)C(C)C [2j] (H-RWVARRDYRGDMGFNYWVWE-OH) | 0.07 | -1.63 ± 0.01 | 57.8 | 97 ± 1 | 84 ± 1 | 14.3 ± 0.09 | -29 ± 3 | -15.9 ± 0.02 | -16.8 ± 0.03 | 97% (B) | – | 58 | – | – | – | -16.8394 | 330.952 | EC50 (PD1:PDL1 interaction; PD1:PDL1 inhibition EC50, ELISA, PDL1-coated plate, biotin-labeled human PD-1, 2 h rt, chemiluminescence, Hill fit, mean ± SD, n = 3, SD): 100 ± 10 nM
6 | CSCC[C@@H]1NC(=O)[C@H](CC(=O)O)NC(=O)[C@H](Cc2ccccc2)NC(=O)[C@H](CCCNC(=N)N)NC(=O)[C@H](Cc2ccc(O)cc2)NC(=O)[C@H](CC(=O)O)NC(=O)[C@H](CCCNC(=N)N)NC(=O)[C@H](CCCNC(=N)N)NC(=O)[C@H](C)NC(=O)[C@@H](NC(=O)[C@H](Cc2c[nH]c3ccccc23)NC(=O)[C@@H](N)CCCNC(=N)N)CSSC[C@@H](C(=O)N[C@@H](Cc2c[nH]c3ccccc23)C(=O)N[C@@H](CCC(=O)O)C(=O)O)NC(=O)[C@H](Cc2c[nH]c3ccccc23)NC(=O)[C@H](Cc2ccc(O)cc2)NC(=O)[C@H](CC(=O)O)NC(=O)[C@H](Cc2ccccc2)NC(=O)CNC1=O [2l] (H-RWCARRDYRFDMGFDYWCWE-OH; disulfide 3-18) | 0.06 | -0.77 ± 0.01 | 66.0 | 82 ± 1 | 71 ± 1 | 4.69 ± 0.05 | -44 ± 2 | -5.46 ± 0.05 | -7.29 ± 0.04 | – | – | – | – | – | 584 | -7.28521 | 339.181 | –
